Experimental data: the supplement of paper PMC11451515

Columns and labels:
Test in all cases: AUC of viability dose-response curve (% viability x log10 dose units); higher = less sensitive
Details in all cases: 48 h
NOMO1 = system: NOMO1
In short: (§1)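 Leukemia cells adapted to each medium were seeded in 1536-well plates (500 or 1000 cells/well) and given library compounds in DMSO for 48 h at 37°C. The 11 threefold doses spanned 47 μM to 0.79 nM, and CellTiter-Glo One luminescence was normalised per plate to DMSO and cell-free wells before four-parameter log-logistic fitting on log10 dose. Area under the curve was integrated with the trapezoidal rule, scaling curves above full viability and removing curves that failed quality control.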

SEM cells = system: SEM cells
In short: as §1

P12-Ichikawa = system: P12-Ichikawa
In short: as §1

[1] = RPMI 5 mM glucose + 10% dialyzed FBS

| SMILES | AUC of viability dose-response curve (NOMO1; HPLM + 10% dialyzed FBS) | AUC of viability dose-response curve (NOMO1; RPMI 5 mM glucose + 10% FBS) | AUC of viability dose-response curve (NOMO1; [1]) | AUC of viability dose-response curve (SEM cells; HPLM + 10% dialyzed FBS) | AUC of viability dose-response curve (SEM cells; RPMI 5 mM glucose + 10% FBS) | AUC of viability dose-response curve (SEM cells; [1]) | AUC of viability dose-response curve (P12-Ichikawa; HPLM + 10% dialyzed FBS) | AUC of viability dose-response curve (P12-Ichikawa; RPMI 5 mM glucose + 10% FBS) | AUC of viability dose-response curve (P12-Ichikawa; [1]) |
| --- | --- | --- | --- | --- | --- | --- | --- | --- | --- |
| Cc1cc(OCCCc2c(C(=O)O)n(Cc3cccnc3)c3c(-c4c(COc5ccc(N6CCN([S+](C)(=O)[O-])CC6)cc5)nn(C)c4C)cccc23)cc(C)c1Cl | 452 | 418 | 443 | 441 | 441 | 439 | 452 | 441 | 446 |
| CC(C)NCC(O)COc1ccc(COCCOC(C)C)cc1 (stereo not drawn) | 458 | 461 | 459 | 468 | 474 | 469 | 457 | 463 | 463 |
| CC1(C)CCC[C@]2(C)[C@H]3CC(=O)O[C@]3(C)CC[C@@H]12 | 473 | 468 | 440 | 470 | 463 | 461 | 468 | 456 | 453 |
| CC(C)(C)c1cc(NC(=O)Nc2ccc(-c3cn4c(n3)sc3cc(OCCN5CCOCC5)ccc34)cc2)no1 | 432 | 394 | 435 | 188 | 232 | 176 | 468 | 409 | 442 |
| CC/C(=C(/c1ccc(O)cc1)c1ccc(OCCNC)cc1)c1ccccc1 | 443 | 459 | 452 | 410 | 412 | 405 | 432 | 414 | 405 |
| CN(C)CCOc1cc(-c2cn[nH]c2)ccc1NC(=O)C1COc2ccccc2O1 (stereo not drawn) | 460 | 442 | 447 | 439 | 453 | 453 | 449 | 455 | 459 |
| CCN(CC)CC#CCOC(=O)C(O)(c1ccccc1)C1CCCCC1 (stereo not drawn) | 468 | 473 | 465 | 458 | 476 | 471 | 460 | 475 | 472 |
| CCc1cc(Nc2nccc(-c3c(-c4ccc(OC)c(C(=O)Nc5c(F)cccc5F)c4)nc4ccccn34)n2)c(OC)cc1N1CCC(N2CCN([S+](C)(=O)[O-])CC2)CC1 | 459 | 464 | 457 | 423 | 435 | 386 | 453 | 451 | 453 |
| CC(C)C(C)/C=C/C(C)C1CCC2C3=CC=C4CC(O)CCC4(C)C3CCC21C (stereo not drawn) | 474 | 426 | 445 | 383 | 454 | 458 | 460 | 468 | 457 |
| C=CC(=O)Nc1cccc(Oc2nc(Nc3ccc(N4CCN(C)CC4)cc3)ncc2Cl)c1 | 465 | 454 | 459 | 369 | 303 | 351 | 420 | 392 | 421 |
| C[C@H]1[C@H](NC(=O)/C(=N/OC(C)(C)C(=O)O)c2csc(N)n2)C(=O)N1[S+](=O)([O-])O | 455 | 475 | 445 | 468 | 471 | 450 | 470 | 471 | 467 |
| CC\1=C/C=C\C=[N]1[Pt](N)(Cl)Cl | 471 | 465 | 463 | 427 | 465 | 421 | 472 | 467 | 464 |
| COC(=O)Nc1nc2cc(C(=O)c3cccs3)ccc2[nH]1 | 297 | 247 | 269 | 212 | 156 | 211 | 193 | 206 | 242 |
| OC(=O)C1=CC=C(NC2=NC3=C(C\N=C(/C4=CC(=CC=C34)Cl)C5=C(F)C=CC=C5F)C=N2)C=C1 | 394 | 343 | 362 | 389 | 373 | 365 | 344 | 345 | 353 |
| O=C(NCC[S+](=O)([O-])c1ccc(C(F)(F)F)cn1)c1ccc(Cl)cc1 | 457 | 461 | 463 | 448 | 450 | 446 | 470 | 455 | 452 |
| Cc1ccccc1C(C(=O)NC1CCCCC1)N(C(=O)Cn1ccnc1C)c1cccc(F)c1 (stereo not drawn) | 452 | 456 | 455 | 449 | 462 | 438 | 442 | 461 | 466 |

| SMILES | AUC of viability dose-response curve (NOMO1; HPLM + 10% dialyzed FBS) | AUC of viability dose-response curve (NOMO1; RPMI 5 mM glucose + 10% FBS) | AUC of viability dose-response curve (NOMO1; [1]) | AUC of viability dose-response curve (SEM cells; HPLM + 10% dialyzed FBS) | AUC of viability dose-response curve (SEM cells; RPMI 5 mM glucose + 10% FBS) | AUC of viability dose-response curve (SEM cells; [1]) | AUC of viability dose-response curve (P12-Ichikawa; HPLM + 10% dialyzed FBS) | AUC of viability dose-response curve (P12-Ichikawa; RPMI 5 mM glucose + 10% FBS) | AUC of viability dose-response curve (P12-Ichikawa; [1]) |
| --- | --- | --- | --- | --- | --- | --- | --- | --- | --- |
| C/C=C1\NC(=O)[C@H]2CSSCC/C=C\[C@H](CC(=O)N[C@H](C(C)C)C(=O)N2)OC(=O)[C@H](C(C)C)NC1=O | 182 | 181 | 189 | 166 | 170 | 162 | 175 | 174 | 176 |
| COc1cnc(N[S+](=O)([O-])c2ccc(N)cc2)nc1 | 445 | 457 | 448 | 428 | 459 | 443 | 449 | 459 | 460 |
| Nc1ccccc1NC(=O)c1ccc(CNC(=O)OCc2cccnc2)cc1 | 326 | 351 | 334 | 313 | 308 | 310 | 350 | 354 | 347 |
| C#Cc1cccc(Nc2ncnc3cc(OCCOC)c(OCCOC)cc23)c1 | 433 | 440 | 400 | 425 | 453 | 390 | 445 | 421 | 418 |
| CC1=C(/C=C/C(C)=C/C=C/C(C)=C/C=C/C=C(C)/C=C/C=C(C)/C=C/C2=C(C)CCCC2(C)C)C(C)(C)CCC1 | 450 | 444 | 459 | 477 | 458 | 474 | 469 | 465 | 440 |
| COc1ccc(-c2cc3nccn3c(Nc3ncccc3C(N)=O)n2)cc1OC | 444 | 476 | 473 | 380 | 405 | 352 | 471 | 475 | 471 |
| Cc1cn2c(-c3cn[nH]c3)cnc2c(Nc2ccc(C(=O)N3CCNCC3)cc2F)n1 | 430 | 417 | 409 | 419 | 424 | 421 | 444 | 440 | 439 |
| O=C(NOCC(O)CO)c1cc(Br)c(F)c(F)c1Nc1ccc(I)cc1F (stereo not drawn) | 238 | 244 | 219 | 327 | 340 | 306 | 361 | 333 | 345 |
| COC1=CC=CC2=C1C(=NC(=N2)C3=CC=CS3)NN4C(=O)\C=C(C)/C4=O | 269 | 290 | 265 | 264 | 282 | 270 | 318 | 302 | 297 |
| CNC(=O)c1ccc(-c2cnc3ncc(Cc4ccc5ncccc5c4)n3n2)cc1F | 460 | 454 | 449 | 458 | 466 | 463 | 469 | 461 | 460 |
| C\C1=C\C(=O)OC2=C1C=CC(=C2)O | 456 | 470 | 439 | 452 | 455 | 434 | 436 | 457 | 452 |
| COc1cc2nc(N(C)CCCNC(=O)C3CCCO3)nc(N)c2cc1OC (stereo not drawn) | 336 | 297 | 331 | 358 | 355 | 378 | 416 | 431 | 384 |
| CNC1CCC(N(Cc2cccc(-c3ccncc3)c2)C(=O)c2sc3ccccc3c2Cl)CC1 (stereo not drawn) | 330 | 326 | 381 | 310 | 267 | 279 | 319 | 326 | 302 |
| OC[C@H]1O[C@@H](O[C@@H]2[C@@H](CO)O[C@](O)(CO)[C@H]2O)[C@H](O)[C@@H](O)[C@H]1O | 448 | 453 | 444 | 458 | 460 | 457 | 456 | 447 | 436 |
| NC1(Cc2ccc(Cl)cc2)CCN(c2ncnc3[nH]ccc23)CC1 | 418 | 395 | 381 | 377 | 357 | 352 | 425 | 384 | 393 |
| COC1CCC(CC1)N(C(=O)C2CCC(C)CC2)C3=C(SC(=C3)\C4=C\CCCC4)C(O)=O (stereo not drawn) | 442 | 446 | 454 | 455 | 449 | 441 | 438 | 451 | 450 |
